Experimental data from patent US8790665B2, “Serum protein-based detection of random sequence polymer compositions” (Ares Trading SA, priority 2009, dated 2014).
“Also recorded” adds a separate entry of the source.

Columns and labels:
RAW264.7 = assay: Bioassay: CCL22 release by monocyte cell line RAW264.7; type: cell-based; settings: RAW264.7 cells exposed to copolymer; FIGS. 10, 15
Experimental: Following synthesis of RSP compositions of different lengths, for example by solid phase synthesis or by solution phase synthesis, the individual lots or batches made by the same manufacturing process, and individual batches of mixtures manufactured by different processes are tested and compared for variation using bioassays such as the release of CCL22 by the monocyte cell line RAW264.7, by ex vivo proliferation assays, and by measuring the binding of serum proteins to peptides in the RSP composition, it is possible to determine subsets of peptides or even individual peptides that are present in any given process or lot. Processes and lots of RSP compositions will be compared to determine whether the same subsets of peptides and/or types of peptides are consistently represented across the different processes and lots.

CCL22 = assay: Acute release of CCL22 (MDC) in serum or plasma after YEAK administration in mice; type: in vivo; settings: FIG. 5
serum proteins = assay: Identification of serum proteins bound to PI-2301 or Cop-1 (ELISA / CNBr-Sepharose capture, LC-MS/MS); type: binding, human; settings: for serum proteins identified as bound: LC-MS/MS of tryptic digest, samples from Example 1 or 2; for binding to the serum proteins listed in Table C: normal human serum, direct ELISA
Excerpt: As a non-limiting example of the above described identification, PI-2301 or Cop-1 may be used in a direct ELISA assay (see Materials and Methods) to identify serum proteins that bind to the RSP composition comprising YFAK or YEAK peptides. […] It has been observed that YEAK and YFAK peptides have different binding specificities; conversely, serum proteins can be said to bind YEAK and YFAK peptides with different specificities. Tables D and E list serum proteins which associate with HDL and LDL, respectively. Any serum proteins may bind to the RSP composition described herein by varying affinities and selectivities.
An uncoated ELISA plate was blocked with PBS/0.1% Tween 20 for 2 hours at room temperature. PI-2301 or Cop-1 samples were serially diluted in PBS/5% normal human serum and added to the blocked and washed wells of the ELISA plate. The PI-2301 or Cop-1 in normal human serum was bound to the plate and unbound PI-2301 or Cop-1 was removed by washing the plate with PBS/0.05% Tween 20. Protein-A-purified anti-rabbit anti-PI-2301 or anti-rabbit anti-Cop-1, diluted to a suitable concentration based on the titer, was added for 1 hr at RT. After another wash step to remove the unbound rabbit anti-2301 or rabbit anti-Cop-1 antibodies, a secondary antibody, a goat anti-rabbit IgG-HRP (horse radish peroxidase conjugated antibody to rabbit IgG) was added to the well. After washing away any unbound secondary antibody, substrate for HRP was added to the wells and incubated for 15 minutes, which yielded a blue color that turns yellow when stop solution is added, the intensity of which color correlates with the amount of total PI-2301 or Cop-1 in the well. The optical density was measured at 450 nm with a ELISA plate reader and a titer curve was generated for each set of the serum samples spiked with PI-2301 and Cop-1, respectively. The limit of serum PI-2301 or serum Cop-1 detection is defined as the concentration which results in a A450 nm absorption which is 3 times above background. […]
Immobilized RSP compositions were prepared by reacting the peptides with CNBr-activated Sepharose®, a pre-activated large pore chromatography medium used for immobilizing ligands (proteins, peptides, nucleic acids) containing primary amines using the cyanogens bromide method. […] After pH neutralization, the absorbance at 280 nm of the eluted fractions was read to identify fractions containing the ligands. […]
Samples containing PI-2301 binding proteins or Cop-1 binding proteins were obtained by the method of Example 1 or Example 2. These samples were then enzymatically digested and analyzed by liquid chromatography tandem mass spectrometry (LC-MS/MS) for the purpose of identify the proteins which bind PI-2301 or Cop-1. […]

HLA-DR2 (DRB1*1501) = HLA-DR2 (DRB1*1501) (Homo sapiens, UniProt P01903+P01911); settings: peptide-specific manner; cited from earlier work
[1] = YEAK in the serum of mice dosed IV or SC, detected by anti-YEAK ELISA; type: in vivo; settings: FIG. 4
[2] = several hours after subcutaneous administration; various species, including man; cited from earlier work
HLA-DR4 (DRB1*0401) = HLA-DR4 (DRB1*0401) (Homo sapiens, UniProt P01903+P01911, A100K/A169T/F76Y/I96L/K127E/L162R/M171V/N62H/P40V/Q125Y/R42H/S133A/S149N/S66Y/V115G/V209L/W38E); settings: peptide-specific manner; cited from earlier work
HLA-DR1 (DRB1*0101) = HLA-DR1 (DRB1*0101) (Homo sapiens, UniProt P01903+P01911, A100R/D57E/F55L/F60I/F76Y/I96L/L162R/M171V/P40L/Q125E/R42F/V115G/Y59C); settings: peptide-specific manner; cited from earlier work
[3] = test system: Ig fraction of rabbit polyserum; assay: ELISA with Ig fraction of rabbit polyserum; type: binding; settings: FIG. 13
[4] = Serum concentration / exposure of PI-2301 compared with Cop-1; settings: in vivo
Excerpt: Certain RSP compositions persist much longer in the serum and other biological fluids than other mixtures. For example, a preparation of YFAK, PI-2301, is found at 10 times the serum concentration in comparison to Cop-1 administered at the same initial weight-by-volume concentration (US App. Pub. 2009-0275496). In some instances, the administered peptides are sequestered by or bound to some in vivo component in situ, the result of which is longer half-life in that environment, with or without enhancement in bioavailability. In certain embodiment, the environment is blood plasma or lymph. In an alternative embodiment, the environment is spinal or cerebral fluid. In yet other embodiments, the environment is any tissue or organ locale to which peptides from RSP compositions are delivered.
Without wishing to be bound by theory, mechanistically, binding of peptides within RSP compositions, (e.g. PI-2301 and Cop-1) to the serum proteins such as lipoproteins found associated with HDL and LDL might facilitate their capture by monocytes through receptors such as SR-BI or ABCA1. This binding may induce activation of monocytes and their differentiation into anti-inflammatory cells. PI-2301 and Cop-1 differ in binding to serum proteins (see FIG. 3). […]

[5] = administered at the same initial weight-by-volume concentration; cited from earlier work
[6] = test system: preclinical models of multiple sclerosis and Crohn's disease; assay: Efficacy in preclinical models of multiple sclerosis and Crohn's disease; type: in vivo
Excerpt: Without wishing to be bound by theory, mechanistically, binding of peptides within RSP compositions, (e.g. PI-2301 and Cop-1) to the serum proteins such as lipoproteins found associated with HDL and LDL might facilitate their capture by monocytes through receptors such as SR-BI or ABCA1. This binding may induce activation of monocytes and their differentiation into anti-inflammatory cells. PI-2301 and Cop-1 differ in binding to serum proteins (see FIG. 3). One reason for the difference is that Cop-1 and generic variants of glatiramer acetates are made by solution phase peptide synthesis, thus significant variations in composition may be observed from lot to lot. In contrast, PI-2301 is manufactured by solid phase synthesis. […] Thus, the great majority of the PI-2301 52-mer peptides in the mixture is likely to be functional. Cop-1 has a much broader molecular weight distribution, making it likely that some species of the mixture, such as small peptide species, in the mixture are ineffective.

For glatiramer acetate [Cop-1], the CCL22 release (RAW264.7) was “released CCL22 in a concentration dependent manner”, the “relation between SC dose and observed maximum CCL22 plasma concentration” value (CCL22) was “linear correlation” and the “serum proteins identified as bound” value (serum proteins) was “several lipoproteins from the HDL and LDL complexes; also recorded: complement proteins such as C3 and C4A”. The “binding to the serum proteins listed in Table C” value (serum proteins) was “experimentally shown to bind”, the “binding affinity to purified HLA-DR2 (DRB1*1501)” value (HLA-DR2 (DRB1*1501)) was “binds with high affinity” and the maximum serum concentration ([1]; mice dosed IV with 4 mg/kg or SC with 21 mg/kg, route for this value not stated) was 1800 ng/mL. For the same substance, the “time of maximum serum concentration” value ([1]; post dosing, mice IV 4 mg/kg or SC 21 mg/kg) was “around 15 min”, the detection in serum [2] was “can be detected” and the “binding affinity to purified HLA-DR4 (DRB1*0401)” value (HLA-DR4 (DRB1*0401)) was “binds with high affinity”. For the same substance, the “binding affinity to purified HLA-DR1 (DRB1*0101)” value (HLA-DR1 (DRB1*0101)) was “binds with high affinity” and the “recognition by Ig fraction of rabbit polyserum” value [3] was “interacts strongly”.
For plovamer [PI-2301], the “serum exposure compared with Cop-1” value [4] was “greater serum exposure”, the “serum proteins identified as bound” value (serum proteins) was “several lipoproteins from the HDL and LDL complexes” and the “binding to the serum proteins listed in Table C” value (serum proteins) was “experimentally shown to bind”. For the same substance, the “serum concentration in comparison to Cop-1” value [5] was 10 times, the detection in serum [2] was “can be detected” and the “efficacy (potency) compared with Cop-1” value [6] was “more potent than Cop-1”.
